Results reported in patent US4883801A, “Xanthine derivative pest control agents” (priority 1986, dated 1989).
Entries after “also recorded” stand apart in the source; their conditions may differ.

Columns and labels:
[1] = tested on: cockroach brain phosphodiesterase; conditions: in vitro; cited from earlier work
[2] = tested on: cockroach brain adenylate cyclase; conditions: in vitro; cited from earlier work
[3] = tested on: Manduca sexta (tobacco hornworm) larvae; assay: Antifeeding test: tomato leaves sprayed with compound, tobacco hornworm larvae; assay type: in vivo; conditions: for Vmax (percent inhibition of feeding at the highest dose used): highest dose usually a 3% spray solution; for EC50 (spray concentration required to cause 50% inhibition of feeding): spray on tomato leaves, calculated from dose-response curves, Manduca sexta 6 per leaf
[4] = target: hornworm nerve cord PDE (cyclic AMP phosphodiesterase); assay: Inhibition of cyclic AMP phosphodiesterase activity in homogenates of tobacco hornworm nerve cord; assay type: biochemical, Manduca sexta; conditions: for activity of structurally similar compounds tested as described in Example 46: Example 47
Description: Nerve cord was dissected from 40-60 mm long M. sexta larvae, cleaned, and homogenized (2 mg/ml) in 6 Mm Tris-maleate, pH 7.4. PDE activity was measured (4 min. incubation at 30° C.) in an assay system (0.1 ml) containing 80 mM Tris-maleate, pH 7.4; 6 mM Mg--SO4; 10^-7 M^3 H-cyclic AMP; and tissue homogenate (0.02 ml). Nerve cord was evaluated in the presence and the absence of the xanthine derivative. For purposes of the evaluation, the rate of formation of ^3 H-5' AMP was measured using the technique described in Filburn, C. […] The values shown in FIG. 1D are the mean (±SEM) of three separate experiments.

adenosine receptor = conditions: Bruns et al., cited from earlier work
Culex (mosquito) larvae = assay: Killing of Culex larvae in solution; assay type: in vivo
[5] = tested on: Tribolium castaneum (flower beetle) adults; assay: Tribolium castaneum adults: acute effect and chronic reproduction test; assay type: in vivo
[6] = tested on: Tribolium confusum (flower beetle) adults; assay: Tribolium confusum adults: acute effect and chronic reproduction test; assay type: in vivo

Row | Structure (SMILES) | Vmax (percent inhibition of feeding at the highest dose used) [3] | EC50 (spray concentration required to cause 50% inhibition of feeding) [3] | further results
1 | Cc1ccc2nc3sc(=O)sc3nc2c1 [Oxythioquinox] | – | – | effect on cockroach brain phosphodiesterase (in words) [1]: most potent inhibitor; inhibition of cockroach brain phosphodiesterase [1]: over 80%; direct effect on cockroach brain adenylate cyclase (in words) [2]: essentially no direct effects
2 | O=c1[nH]c(=O)c2[nH]cnc2[nH]1 [Example 32, xanthine] | 0% | > 3 % (gm/100 ml) | –
3 | COc1ccc(Cc2nccc3cc(OC)c(OC)cc23)cc1OC [papavarine, reference compound] | – | – | Ki ([4]; read-out: Ki, insect PDE): 40 µM; EC50, ability of Manducca to feed ([3]; in vivo): 0.1 % spray
4 | C=CCC1=C(C)C(OC(=O)C2C(C=C(C)C)C2(C)C)CC1=O (stereo not drawn) [Allethrin] | – | – | direct effect on cockroach brain adenylate cyclase (in words) [2]: essentially no direct effects
5 | Cn1c(=O)c2c([nH]c(=O)n2C)n(C)c1=O [Example 40, 1,3,7-trimethyl-uric acid] | 40% | > 3 % (gm/100 ml) | –
6 | COP(=O)(OC)Oc1ccc([N+](=O)[O-])cc1 [methylparaoxon] | – | – | direct effect on cockroach brain adenylate cyclase (in words) [2]: essentially no direct effects
7 | CCCn1c(=O)c2c(ncn2C)n(CCC)c1=O [Example 28, 1,3-dipropyl,7-methyl-xanthine] | 84% | 0.48 % (gm/100 ml) | –
8 | Cn1cnc2[nH]c(=O)[nH]c(=O)c21 [Example 35, 7-methyl-xanthine] | 29% | > 3 % (gm/100 ml) | –
9 | Cn1c(=O)c2[nH]c(-c3ccccc3)nc2n(C)c1=O [Example 42, 1,3-dimethyl-8-phenyl-xanthine] | 38% | > 3 % (gm/100 ml) | PDE inhibition (in words) ([4]; FIG. 1D): very weak PDE inhibitor; antifeeding effect (in words) ([3]; FIG. 1C, listed as 8-phenyltheophylline): relatively weak effects; also recorded: little antifeeding effect; Ki (adenosine receptor; Daly 1982): 0.12 to 1 µM
10 | Cc1nc2[nH]c(=O)[nH]c(=O)c2[nH]1 [Example 36, 8-methyl-xanthine] | 35% | > 3 % (gm/100 ml) | –
11 | ClC1=C(Cl)[C@]2(Cl)[C@@H]3[C@@H]4C[C@@H]([C@H]5O[C@@H]45)[C@@H]3[C@@]1(Cl)C2(Cl)Cl [Dieldrin] | – | – | effect on cockroach brain phosphodiesterase (in words) [1]: activators of phosphodiesterase; direct effect on cockroach brain adenylate cyclase (in words) [2]: essentially no direct effects
12 | Clc1ccc(C(c2ccc(Cl)cc2)C(Cl)(Cl)Cl)cc1 [DDT] | – | – | effect on cockroach brain phosphodiesterase (in words) [1]: activators of phosphodiesterase; direct effect on cockroach brain adenylate cyclase (in words) [2]: essentially no direct effects
13 | COc1nc2c(c(=O)n(C)c(=O)n2C)n1C [Example 26, 1,3,7-trimethyl,8-methoxy-xanthine] | 86% | 0.5 % (gm/100 ml) | –
14 | CC(O)Cn1cnc2c1c(=O)n(C)c(=O)n2C (stereo not drawn) [Example 25, 1,3-dimethyl,7-(beta-hydroxypropyl-xanthine)] | 95% | 1.5 % (gm/100 ml) | –
15 | CCCn1c(=O)c2c(ncn2CCC)n(CCC)c1=O [Example 29, 1,3,7-tripropyl-xanthine] | 95% | 0.19 % (gm/100 ml) | –
16 | Cc1cc(OC(=O)N(C)C)nn1C(=O)N(C)C [Dimetilan] | – | – | direct effect on cockroach brain adenylate cyclase (in words) [2]: essentially no direct effects
17 | CC(C)CCn1c(=O)c2[nH]cnc2n(CC(C)C)c1=O [Example 21, 1-isoamyl,3-isobutyl-xanthine] | > 52% | 0.2 % (gm/100 ml) | –
18 | CCn1c(=O)c2[nH]cnc2n(CC)c1=O [Example 16, 1,3-diethyl-xanthine] | 98% | 0.33 % (gm/100 ml) | –
19 | Cn1c(=O)[nH]c(=O)c2[nH]cnc21 [Example 34, 3-methyl-xanthine] | 8% | > 3 % (gm/100 ml) | –
20 | Cn1c(=O)[nH]c2[nH]c(=O)n(C)c2c1=O [Example 39, 1,7-dimethyl-uric acid] | 30% | > 3 % (gm/100 ml) | –

Row | Structure (SMILES) | Vmax (percent inhibition of feeding at the highest dose used) [3] | EC50 (spray concentration required to cause 50% inhibition of feeding) [3] | further results
21 | O=c1c2[nH]cnc2n(Cc2ccccc2)c(=O)n1Cc1ccccc1 [Example 19, 1,3-dibenzyl-xanthine] | 70% | 0.45 % (gm/100 ml) | –
22 | CCCCn1c(=O)c2[nH]cnc2n(CCCC)c1=O [Example 31, 1,3-dibutyl-xanthine] | 90% | 0.044 % (gm/100 ml) | –
23 | CNC(=O)O/N=C/C(C)(C)SC [Aldicarb] | – | – | direct effect on cockroach brain adenylate cyclase (in words) [2]: essentially no direct effects
24 | Cn1c(=O)c2ncn(C)c2n(C)c1=O [1,3,9-trimethyl-xanthine] | – | – | activity of structurally similar compounds tested as described in Example 46 [4]: only weakly active
25 | CCn1c(=O)n(CCc2ccccc2)c(=O)c2[nH]cnc21 [Example 22, 1-phenethyl,3-ethyl-xanthine] | 96% | 0.6 % (gm/100 ml) | –
26 | C=CCn1c(=O)c2[nH]cnc2n(CC=C)c1=O [Example 18, 1,3-diallyl-xanthine] | 99% | 0.35 % (gm/100 ml) | –
27 | Cn1c(=O)[nH]c2ncn(C)c2c1=O [Example 38, 1,7-dimethyl-xanthine] | 30% | > 3 % (gm/100 ml) | activity of structurally similar compounds tested as described in Example 46 [4]: inactive
28 | CCOP(=O)(OCC)OP(=O)(OCC)OCC [TEPP] | – | – | direct effect on cockroach brain adenylate cyclase (in words) [2]: essentially no direct effects
29 | C=C(C)[C@H]1Cc2c(ccc3c2O[C@@H]2COc4cc(OC)c(OC)cc4[C@@H]2C3=O)O1 [Rotenone] | – | – | direct effect on cockroach brain adenylate cyclase (in words) [2]: essentially no direct effects
30 | CC(=O)n1cnc2c1c(=O)n(C)c(=O)n2C [Example 41, 1,3-dimethyl-7-acetyl-xanthine] | 18% | > 3 % (gm/100 ml) | –
31 | Cn1c(=O)[nH]c2nc[nH]c2c1=O [Example 33, 1-methyl-xanthine] | 21% | > 3 % (gm/100 ml) | –
32 | CCCn1c(=O)c2[nH]cnc2n(CCC)c1=O [Example 17, 1,3-dipropyl-xanthine] | 95% | 0.035 % (gm/100 ml) | –
33 | CC(C)Cn1c(=O)n(C)c(=O)c2[nH]cnc21 [Example 20, 1-methyl,3-isobutyl-xanthine] | 95% | 0.3 % (gm/100 ml) | EC50, killing of larvae (Culex (mosquito) larvae): 0.007%; EC50, inhibition of reproduction ([5]; chronic tests): 0.2%; effect on adults ([5]; doses up to 3%): unaffected; potency in PDE inhibition relative to theophylline [4]: about 10 fold; antifeeding effects in the presence of diltiazem and procaine ([3]; Example 13): neither reversing the observed antifeeding effects; pestistatic and pesticidal effects in the presence of D600, verapamil, and nimodipine ([3]; Example 14): appeared unaffected; potency in disruption of feeding relative to theophylline ([3]; in vivo): about 10 fold; potency in blocking adenosine receptors compared with theophylline (in words) (adenosine receptor): roughly equally potent; EC50, inhibition of reproduction ([6]; chronic tests): 0.2%; effect on adults ([6]; doses up to 3%): unaffected
34 | Cn1c(=O)c2c(nc(Cl)n2C)n(C)c1=O [Example 44, 1,3,7-trimethyl-8-chloro-xanthine] | 40% | > 3 % (gm/100 ml) | –
35 | CCCn1c(=O)c2c(ncn2Cc2ccccc2)n(CCC)c1=O [Example 30, 1,3-dipropyl,7-benzyl-xanthine] | 96% | 0.08 % (gm/100 ml) | –
36 | Cn1c(=O)c2ncn(C)c2n(C)c1=O [Example 45, 1,3,9-trimethyl-xanthine] | 50% | > 3 % (gm/100 ml) | pesticidal and pestistatic activity class (active / inactive / weakly active) ([3]; Table 1 grouping): weakly active
37 | CCCn1c(=O)c2[nH]c(-c3ccccc3)nc2n(CCC)c1=O [Example 43, 1,3-dipropyl-8-phenyl-xanthine] | 0% | > 3 % (gm/100 ml) | –
38 | Cn1c(=O)c2c(ncn2CCCl)n(C)c1=O [Example 24, 1,3-dimethyl,7-(2-chlorethyl)-xanthine] | 95% | 0.3 % (gm/100 ml) | –
39 | Cn1cnc2c1c(=O)[nH]c(=O)n2C [Example 27, 3,7-dimethyl-xanthine (theobromine), reference compound] | 87% | 1.0 % (gm/100 ml) | –
